Source: article PMC4057637, “Efficacy of novel antibacterial compounds targeting histidine kinase YycG protein” (Applied Microbiology and Biotechnology, 2014)
In brackets after ≈: the same amount, converted by molar mass.

Columns and labels:
Hemolytic activity = type: cell-based; details: healthy human erythrocytes, 5 % (v/v) suspension; for hemolysis at 1 h: at MIC
Method: The hemolytic activities of the derivatives on healthy human erythrocytes were also determined. Healthy human erythrocytes resuspended in normal saline (NS) at 5 % (v/v) were co-incubated with the derivatives at final concentrations of MIC, 4 × MIC, or 200 μM for 1 h at 37 °C in 96-well microtiter plates. The suspensions were centrifuged at 350 g for 10 min and the supernatant (100 μl) was transferred to new wells and measured at 570 nm on a spectrophotometer (Benchmark Microplate Reader; Bio-Rad, Hercules, CA, USA). The percentage of hemolysis was calculated by normalizing against the absorbance of erythrocytes treated with 1 % Triton X-100, which caused complete hemolysis; 0.1 % DMSO-treated cells were used as a control (Miyoshi et al. [1997]). The experiment was performed in quadruplicate wells and repeated independently three times.

S. aureus ATCC 25923 = test: MIC, broth dilution; type: cell-based; details: Staphylococcus aureus, ATCC25923
Method: (§1) MICs of the derivatives for S. epidermidis and S. aureus were determined by the broth dilution method according to the National Committee for Clinical Laboratory (NCCLS) recommendations (Turnidge and Bordash [2007]). Twofold dilutions of the derivatives in tubes containing 4 ml of Mueller-Hinton broth (MH, Sigma, Germany) were made to concentrations from 200 to 0.39 μM. Overnight cultures of the bacteria were adjusted to the 0.5 McFarland standards and inoculated 1:200 into the MH broth and then incubated at 37 °C for 16–20 h. The lowest concentration inhibiting visible growth of the bacteria was recorded as minimal inhibitory concentration (MIC).

S. aureus ATCC 49230 = test: MIC, broth dilution; type: cell-based; details: Staphylococcus aureus, ATCC49230
Method: as §1

[1] = test system: S. epidermidis ATCC 12228; test: MIC, broth dilution; type: cell-based; details: Staphylococcus epidermidis, ATCC12228
Method: as §1

recombinant YycG′ = target: T1, recombinant YycG′ (Staphylococcus epidermidis, UniProt Q5HK19); test: Inhibition of YycG′ autophosphorylation (Kinase-Glo Luminescent Kinase Assay); type: biochemical, S. epidermidis; details: for inhibition of enzymatic autophosphorylation of YycG′: 100 μM derivative, YycG′ 0.13 μM; for IC50: autophosphorylation of recombinant YycG′, Kinase-Glo
T1 construct: made in house; host or cells: E. coli BL21 (DE3)
Method: Recombinant YycG (YycG′, amino acids 370–610) was prepared by expressing the HATPase_c and HisKA domains of YycG in E. coli BL21 (DE3). In brief, the sequence coding for YycG′ was amplified from the genome of S. epidermidis ATCC 35984 by PCR and cloned into the pET28a (+) vector, which inserts a GB1 tag (B1 domain of protein G, 56 residues) to make the recombinant fusion protein highly soluble and stable. The recombinant YycG′ protein was fused to the GB1 tag at its N-terminus end, expressed in E. coli BL21 (DE3) and purified by Ni^2+ affinity chromatography on a Ni-NTA column (Qiagen, Germany). The purified YycG′ was cleaved by TEV protease and further purified by Ni-NTA and Superdex 75 gel filtration columns (GE Healthcare, USA).
The Kinase-Glo™ Luminescent Kinase Assay (Promega, Madison, WI, USA) was used to measure the inhibitory activities of the derivatives against the autophosphorylation activity of the recombinant YycG′ following the manufacturer’s recommendation. The derivatives were serially diluted from 200 to 1.6 μM with reaction buffer (40 mM Tris pH 8.0, 20 mM MgCl2, and 0.1 mg/ml BSA). Recombinant YycG′ (0.02 μg/μl) and diluted derivative were added into a 96-well plate and incubated at 25 °C for 30 min, and then 4 μM ATP was added into each well and incubated for another 30 min. Finally, 50 μl Kinase-Glo™ Reagent containing luciferase (kinase) and D-luciferin was added. The luminescent signal generated by luciferase was in proportion to the amount of ATP remaining in the reaction. Luminescence was detected by a Perkin Elmer Victor X5 luminescence plate reader, and the intensity was recorded as relative light units (RLU). The wells containing ATP and Kinase-Glo™ without YycG′ and derivatives or containing YycG′ plus ATP and Kinase-Glo™ without the derivatives were used as the controls. The percentage inhibition of protein phosphorylation (Rp) by the derivatives was calculated as follows: Rp=RLUYycG^’+derivative+ATP+Kinase-Glo^TM-RLUYycG^’+ATP+Kinase-Glo^TM/RLUATP+Kinase-Glo^TM-RLUYycG^’+ATP+Kinase-Glo^TM×100
The concentration of a derivative required to inhibit half of the autophosphorylation of recombinant YycG′ (half maximal inhibitory concentration, IC50) was calculated with Origin 8.0 software (Origin Lab, Northampton, USA). Three independent assays were carried out, and each was performed in quadruplicate.

Clinical MRSE strains = test: MIC, broth dilution; type: cell-based, S. epidermidis; details: Staphylococcus epidermidis; Clinical MRSE strains (n = 5)
Method: (§2) Bacterial strains S. epidermidis ATCC 12228 (nonbiofilm forming), S. epidermidis ATCC 35984 (biofilm forming), S. aureus ATCC 49230, and S. aureus ATCC 25923 were from the American Type Culture Collection (ATCC, Manassas, USA) and were cultured in tryptic soy broth medium (TSB; Oxoid Ltd., Basingstoke, England). Ten clinical methicillin-resistant staphylococcal isolates, five MRSA isolates and five MRSE isolates, were collected from Huadong Teaching Hospital in Shanghai. Escherichia coli ATCC 25922 was grown in Luria-Bertani (LB) broth. The six compounds used in this study (H2-38, H2-39, H2-57, H2-60, H2-74, and H2-81) were screened from 56 derivatives of compound 2 in which the functional groups were modified, but the thiazolidine core structure was unchanged. The compounds were synthesized by Nanjing University of Technology. To generate the derivative compounds, halogen atoms were introduced into 4-thiazolidinone compounds that contained carboxylic acid moieties of phenoxy-acetic acid, (5-vinyl-furan-2-yl)-benzoic acid or (5-vinyl-thiophene-2-yl)-benzoic acid. The derivatives were dissolved in dimethyl sulfoxide (DMSO; Amresco, USA) to 200 mM for use as stock solutions.
as §1

E. coli ATCC 25922 = test: MIC, broth dilution; type: cell-based; details: Escherichia coli, ATCC25922, 200 μM highest concentration used
Method: as §2, §1

T1 sequence (Q5HK19 370-610): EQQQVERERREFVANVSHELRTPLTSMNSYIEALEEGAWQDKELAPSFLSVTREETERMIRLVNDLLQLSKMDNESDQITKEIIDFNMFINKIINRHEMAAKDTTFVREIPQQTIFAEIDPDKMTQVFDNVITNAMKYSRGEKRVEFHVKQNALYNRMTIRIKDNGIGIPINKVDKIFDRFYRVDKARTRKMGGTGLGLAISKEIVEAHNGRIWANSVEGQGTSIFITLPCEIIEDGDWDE

| SMILES | hemolysis at 1 h, 200 µM (Hemolytic activity) | hemolysis at 1 h (Hemolytic activity) | MIC (S. aureus ATCC 25923) | MIC (S. aureus ATCC 49230) | MIC [1] | inhibition of enzymatic autophosphorylation of YycG′ (recombinant YycG′) | IC50 (recombinant YycG′) | MIC (Clinical MRSE strains) | MIC (E. coli ATCC 25922) |
| --- | --- | --- | --- | --- | --- | --- | --- | --- | --- |
| O=C(O)c1ccc(-c2ccc(C=C3SC(=Nc4ccc(F)cc4)N(c4ccc(F)cc4)C3=O)s2)cc1 [H2-60, 4-{5-{{3-(4-fluorophenyl)-2-[(4-fluorophenyl)imino]-4-oxothiazolidin-5-ylidene}methyl}thiophene-2-yl}benzoic acid] | 0.84 ± 0.03% | 0.52 ± 0.06% | 1.5 µM (≈ 0.778 µg/mL) | 1.5 µM (≈ 0.778 µg/mL) | 1.5 µM (≈ 0.778 µg/mL) | 55.4% | 63.7 ± 2.3 µM | 1.5 to 3.1 µM (≈ 0.778 to 1.61 µg/mL) | > 200 µM |
| O=C(O)c1ccc(-c2ccc(/C=C3\S/C(=N\c4ccccc4)N(c4ccc(F)cc4)C3=O)s2)cc1 [H2-81, 4-{5-{{3-(4-fluorophenyl)-2-[(4-phenyl)imino]-4-oxothiazolidin-5-ylidene}methyl}thiophene-2-yl}benzoic acid] | 0.1 ± 0.03% | 0.06 ± 0.09% | 1.5 µM (≈ 0.751 µg/mL) | 1.5 µM (≈ 0.751 µg/mL) | 1.5 µM (≈ 0.751 µg/mL) | 79.2% | 24.2 ± 1.2 µM | 1.5 µM (≈ 0.751 µg/mL) | > 200 µM |
| CCc1ccccc1/N=C1\S/C(=C\c2ccc(OCC(=O)O)c(OC)c2)C(=O)N1c1ccccc1CC [Compound 2, {2-{4-{3-(2-ethylphenyl)-2-[(2-ethylphenyl)imino]-4-oxothiazolidin-5-ylidene}methyl}-2-methoxyphenoxy}acetic acid] | 5.24 ± 0.21% | 2.31 ± 0.35% | 50 µM (≈ 25.8 µg/mL) | 50 µM (≈ 25.8 µg/mL) | 25 µM (≈ 12.9 µg/mL) |  | 47.9 ± 5.3 µM | 25 to 50 µM (≈ 12.9 to 25.8 µg/mL) | > 200 µM |
| O=C(O)COc1ccc(C=C2SC(=Nc3ccc(Cl)cc3)N(c3ccc(Cl)cc3)C2=O)cc1 [H2-74, 2-{4-{[3-(4-chlorophenyl)-2-[(4-chlorophenyl)imino]-4-oxothiazolidin-5-ylidene}methyl}phenoxy}acetic acid] | 0.42 ± 0.03% | 0.14 ± 0.03% | 3.1 µM (≈ 1.55 µg/mL) | 1.5 µM (≈ 0.749 µg/mL) | 1.5 µM (≈ 0.749 µg/mL) | 53.9% | 71.2 ± 4.9 µM | 3.1 to 6.3 µM (≈ 1.55 to 3.15 µg/mL) | > 200 µM |
| O=C(O)c1ccc(-c2ccc(C=C3SC(=Nc4ccc(Cl)cc4)N(c4ccc(Cl)cc4)C3=O)o2)cc1 [H2-39, 4-{5-{{3-(4-chlorophenyl)-2-[(4-chlorophenyl)imino]-4-oxothiazolidin-5-ylidene}methyl}furan-2-yl}benzoic acid] | 0.41 ± 0.05% | 0.12 ± 0.03% | 1.5 µM (≈ 0.803 µg/mL) | 1.5 µM (≈ 0.803 µg/mL) | 1.5 µM (≈ 0.803 µg/mL) | 56.3% | 59.8 ± 1.4 µM | 1.5 to 3.1 µM (≈ 0.803 to 1.66 µg/mL) | > 200 µM |
| O=C(O)c1cccc(-c2ccc(C=C3SC(=Nc4ccc(Cl)cc4)N(c4ccc(Cl)cc4)C3=O)o2)c1 [H2-38, 3-{5-{{3-(4-chlorophenyl)-2-[(4-chlorophenyl)imino]-4-oxothiazolidin-5-ylidene}methyl}furan-2-yl}benzoic acid] | 0.28 ± 0.03% | 0.14 ± 0.03% | 1.5 µM (≈ 0.803 µg/mL) | 1.5 µM (≈ 0.803 µg/mL) | 1.5 µM (≈ 0.803 µg/mL) | 61.8% | 41.4 ± 3.4 µM | 1.5 to 3.1 µM (≈ 0.803 to 1.66 µg/mL) | > 200 µM |
| O=C(O)c1ccc(-c2ccc(/C=C3\S/C(=N\c4ccccc4)N(c4ccc(Cl)cc4)C3=O)o2)cc1 [H2-57, 4-{5-{{3-(4-chlorophenyl)-2-[(4-phenyl)imino]-4-oxothiazolidin-5-ylidene}methyl}furan-2-yl}benzoic acid] | 0.16 ± 0.04% | 0.14 ± 0.03% | 3.1 µM (≈ 1.55 µg/mL) | 1.5 µM (≈ 0.751 µg/mL) | 3.1 µM (≈ 1.55 µg/mL) | 59.7% | 47.1 ± 1.5 µM | 1.5 to 3.1 µM (≈ 0.751 to 1.55 µg/mL) | > 200 µM |
